{"source": "patent US20230140155A1", "about": "“MEDICAMENT FOR TREATMENT AND/OR PREVENTION OF CANCER” (TORAY INDUSTRIES, INC., priority 2020, published 2023)", "origin": "cited, not measured here", "system": "basal-like subtype breast cancer (BLBC)", "settings": "with docetaxel following epirubicin and cyclophosphamide (EC treatment)"}
{"smiles": "[NH2][Pt]1([NH2])[O]C(=O)C2(CCC2)C(=O)[O]1", "note": "[carboplatin, (SP-4-2)-diammine[cyclobutan-1,1-dicaruboxylato(2-)-O,O′]platinum]", "values": [{"measurement": "effectiveness for treatment of BLBC", "result": "not effective"}]}
